Results: patent publication US20200283728A1, “MODIFIED T CELLS AND USES THEREOF” (MUSC FOUNDATION FOR RESEARCH DEVELOPMENT, priority 2017, published 2020)

Legend:
Type in all cases: cell-based, mouse
[1] = tested on: ICOS-activated Th17 cells; assay: Cytokine production of ICOS-stimulated TRP-1 Th17 cells expanded with inhibitors (intracellular FACS); conditions: 8 days of expansion, vs un-treated Th17 cells
Procedure: (§1) Expansion of Th17 cells with Wnt/β-catenin and PI3K inhibitors in vitro: TRP-1 splenocytes were activated with irradiated (10Gy) C57BL/6 splenocytes pulsed with TRP-1 peptide (1 μM) added at a 5:1 ratio in 24-well plates (1 mL media containing 1.5×10^6 cells/well). TRP-1 splenocytes were co-stimulated with soluble ICOS agonist (Clone 398.4A, BioLegend) and polarized toward Th17 phenotype as describe above. For in vitro expansion from day 0 of culture 10 μM Ly294002 (Cayman Chemical) or 10 μM CAL-101 (Selleckchem) and/or 60 μM indomethacin (Sigma-Aldrich) was added. Also dimethylosulfoxide 0.01% (Sigma-Aldrich) was added as a control. Th17 cultures were also supplemented with hrIL-2 (100 IU/mL) and rmIL-23 ([…]; R&D). Medium, including cytokines and inhibitors was refreshed every 2-3 days.
Surface staining of Th17 cells was performed with anti-CD4-APCCy7, anti-Vβ14-FITC (BD Biosciences) anti-CD62L-APC, anti-CD44-PerCPCy5.5, anti-CCR6-PE, anti-CD69-PECy7, anti-CCR7-PE, anti-CD27-PE, anti-CD28-PerCPCy5.5, anti-ICOS-PE and anti-CD25-PECy7/FITC (BioLegend) and viability stain (Invitrogen) on day 8. For all intracellular staining of cytokines (anti-IL-17 PerCPCy5.5, anti-IFN-γ-v450, anti-IL-2-FITC, anti-IL-21-APC, anti-IL-22-PE, anti-TNF-α-FITC; BioLegend) and transcription factors (anti-RORγt-APC, anti-cMaf-PerCPCy5.5, anti-STAT-3-PE, anti-FoxP3-FITC/PE, anti-T-bet-v450; eBiosciences), cells were stimulated for 4-5 h with 50 ng/mL PMA and 750 ng/mL ionomycin (Sigma-Aldrich). Additional antibodies used include: CD127-PECy7 clone A019D5, CD25-APCCy7 clone BC96, CD4-APCCy7 OKT4, CD45RO-APC clone UCHL1, CD62L-FITC clone DREG-56, CD8-PerCPCy5.5 clone SKI, TIM3-PE clone F38-2E2 (biolegend); CCR7-PECy7 clone CCR7, CD8-V450 clone RPA-T8, PD1-FITC clone M1H4, (BD Biosciences). Antibodies used for mouse cell analysis: CD127-PE/V450 clone A7R34, CD25-FITC clone 7D4, CD44-PerCPCy5.5/FITC clone IM7, CD69-PECy7 clone HI.2F3, CD8-PerCPCy5.5 clone 53-6.7, CD8-PECy7 clone YTS156.7.7, PD1-PerCPCy5.5 clone 29F.1A12 V[…]13-PE/APC clone MR12-3/MR12-4 (Biolegend), CD4-APCCy7 clone RM4-5, CD62L-APC clone MEL-14, KLRG1-APC/V450 clone 2F1 (BD). After 1 h, Monensin (BioLegend) was added per manufacturer's instructions. After surface staining, intracellular staining for cytokines and transcription factors was performed using Fixation and Permeabilization buffers (BioLegend) and Foxp3 Staining Buffers (eBioscience), respectively. Flow cytometry acquisition was performed on a FACSVerse or Accuri (BD Bioscience). Data were analyzed with FlowJo software (TreeStar). For experiments with sorted cells, CD8^+Vb13^+ T cells were sorted from pmel-1 cultures using Dynabeads untouched mouse CD8^+ T cell kit (Invitrogen) and a FACSAria cell sorting machine (BD Biosciences).

[2] = tested on: ICOS-activated Th17 cells; assay: Cytokine secretion of Th17 cells three days after priming (ELISA); conditions: day 3 after priming
Procedure: as §1, with “TRP-1” left out, “days. Cytokine levels were measured using the mouse IL-17A, INF-γ, IL-2, IL-9, IL-10, IL-21, IL-22, CCL-20, GM-CSF ELISA kits (R&D) following the manufacturer's protocol.” for “days.”

[3] = tested on: ICOS activated Th17 cells; assay: Cytokine production of inhibitor-primed Th17 cells after secondary re-stimulation in vitro (ELISA); conditions: vs untreated or CAL-101-treated Th17 cells
Description: FIG. 11: Re-stimulation of ICOS activated Th17 cells in vitro restores their cytokine production after initial inhibition of PI3K/p110δ and Wnt/β-catenin signaling pathways. ELISA analysis of cytokine production 72 hrs after secondary re-stimulation in vitro using splenocytes pulsed with trp-1 peptide (5:1 ratio), PMA/Ionomycin or B16F10 cancer cells of ICOS stimulated Th17 cells expanded with inhibitors as indicated. Data represent mean±SEM of at least three independent experiments.
Cytokine levels were measured using the mouse IL-17A, INF-γ, IL-2, IL-9, IL-10, IL-21, IL-22, CCL-20, GM-CSF ELISA kits (R&D) following the manufacturer's protocol.

[4] = CAL-101 10 μM, Indo 60 μM, Ly294002 10 μM

COc1ccc2c(c1)c(CC(=O)O)c(C)n2C(=O)c1ccc(Cl)cc1 [Indo, indomethacin]
IFN-γ production [1, 4]: did not impact
IL-17A production [1, 4]: did not impact
IL-22 production [1]: increased
TNF-α production [1]: increased
CCL-20 secretion [2]: decreased
GM-CSF secretion [2]: no difference
IFN-γ secretion [2]: decreased
IL-2 secretion [2]: no difference
IL-9 secretion [2]: decreased
IL-10 secretion [2]: no difference
IL-17A secretion [2]: decreased
IL-21 secretion [2]: no difference
IL-2 secretion after peptide re-stimulation [3]: significantly more
